Experimental data as given in patent US20090203064A1, “METHOD AND DEVICE FOR MONITORING PLATELET FUNCTION” (PLACOR INC., priority 2002, published 2009).

Test system: platelet function
Assay: Platelet plug formation time of arterial blood from pigs receiving platelet inhibitors (wire-in-tube device)
Type: in vivo
Protocol: Pigs were placed on various platelet inhibitors and then the platelet function of the pigs was monitored. Twenty-five pigs received 300 mg aspirin daily for seven days. Ten pigs received 300 mg ticlopidine (an ADP inhibitor) daily. Ten pigs received a combination of 300 mg aspirin and 300 mg ticlopidine daily. Twenty microliters of blood were drawn into the lumen of the tube at a rate of 1.0 microliter per second. The wire was 0.016 inches in diameter and the inner diameter of the tube was 0.034 inches in diameter. Blood (20 μl) was delivered via a three-way flow divider (a Touhy-Borst Connector) into a TEFLON tube 2 inches long with a stainless steel wire […] in diameter inserted through the tube and extending about three-fourths of the length of the tube. The wire was held in place at the end of the tube. The tube was coupled to a Hamilton syringe pump and to a HP blood pressure transducer for measuring the pressure in the tube. The platelet plug formation time was determined as damping of the blood pressure signal.

SMILES	Mean platelet plug time (300 mg aspirin daily, after 3 days)	Mean platelet plug time (300 mg aspirin daily, after 7 days)	Mean platelet plug time (300 mg ticlopidine daily, after 3 days) [min]	Mean platelet plug time (300 mg ticlopidine daily, after 7 days) [min]
CC(=O)Oc1ccccc1C(=O)O [aspirin]	3.9 (± 0.25) minutes	4.6 (± 0.42) minutes		
Clc1ccccc1CN1CCc2sccc2C1 [ticlopidine]			5.67	6.21
